The source of these data is US6759410B1, “3,4-dihydro-(1H)-quinazolin-2-ones and their use as CSBP/p38 kinase inhibitors” (SmithLine Beecham Corporation, priority 1999, dated 2004).

As usually defined, the melting point is the temperature of the solid-liquid transition. `Cc1ccccc1-c1cccc2c1CNC(=O)N2c1ccccc1` [Example 14, 1-Phenyl-5-(2-methylphenyl)-3,4-dihydro-(1H)-quinazolin-2-one] returned a melting point of 236 to 238 °C.
